The supplement of paper PMC10307832

Assays:
Assay in all cases: relative viability (nuclei count vs DMSO), 5 days (fraction); higher = more cells survive
KN-93 = compound: CN(C/C=C/C1=CC=C(C=C1)Cl)CC2=CC=CC=C2N(CCO)S(=O)(=O)C3=CC=C(C=C3)OC [KN-93]
Procedure, shortened: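 Five library-drug doses, separated by factors of √10, were pinned into 1536-well plates holding lung cancer cell lines after an overnight stay at 37 °C. Cells were fixed, permeabilised and Hoechst-stained in one step after 5 days without medium change, then imaged at 4×. Viability compares treated-well with vehicle-well nuclei, counted in MetaXpress, as a median across plates. Passing plates had control CV below 25% and at least one doubling.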

KN-93 + Bortezomib = compound: CN(C/C=C/C1=CC=C(C=C1)Cl)CC2=CC=CC=C2N(CCO)S(=O)(=O)C3=CC=C(C=C3)OC [KN-93] + CC(C)C[C@H](NC(=O)[C@H](Cc1ccccc1)NC(=O)c1cnccn1)B(O)O [Bortezomib] (partner 0.002 µM)
Procedure, shortened: (§1)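 Lung cancer cell lines were pin-tool dosed in 1536-well plates on the day after seeding, with either a lone drug or a fixed anchor-drug dose plus five library-drug doses (not always all listed) in √10 steps. Nuclei were counted on 4× images after 5 days. Relative viability is the ratio of treated-well to vehicle-well nuclei counts, with each value a median of duplicate plates.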

KN-93 + Navitoclax = compound: CN(C/C=C/C1=CC=C(C=C1)Cl)CC2=CC=CC=C2N(CCO)S(=O)(=O)C3=CC=C(C=C3)OC [KN-93] + CC1(C)CCC(c2ccc(Cl)cc2)=C(CN2CCN(c3ccc(C(=O)NS(=O)(=O)c4ccc(N[C@H](CCN5CCOCC5)CSc5ccccc5)c(S(=O)(=O)C(F)(F)F)c4)cc3)CC2)C1 [Navitoclax] (partner 0.5 µM)
Procedure, shortened: as §1

KN-93 + Foretinib = compound: CN(C/C=C/C1=CC=C(C=C1)Cl)CC2=CC=CC=C2N(CCO)S(=O)(=O)C3=CC=C(C=C3)OC [KN-93] + COc1cc2c(Oc3ccc(NC(=O)C4(C(=O)Nc5ccc(F)cc5)CC4)cc3F)ccnc2cc1OCCCN1CCOCC1 [Foretinib] (partner 0.25 µM)
Procedure, shortened: as §1

KN-93 + Lapatinib = compound: CN(C/C=C/C1=CC=C(C=C1)Cl)CC2=CC=CC=C2N(CCO)S(=O)(=O)C3=CC=C(C=C3)OC [KN-93] + CS(=O)(=O)CCNCc1ccc(-c2ccc3ncnc(Nc4ccc(OCc5cccc(F)c5)c(Cl)c4)c3c2)o1 [Lapatinib] (partner 2 µM)
Procedure, shortened: as §1

KN-93 + Pictilisib = compound: CN(C/C=C/C1=CC=C(C=C1)Cl)CC2=CC=CC=C2N(CCO)S(=O)(=O)C3=CC=C(C=C3)OC [KN-93] + CS(=O)(=O)N1CCN(Cc2cc3nc(-c4cccc5[nH]ncc45)nc(N4CCOCC4)c3s2)CC1 [Pictilisib] (partner 1 µM)
Procedure, shortened: as §1

KN-93 + Crizotinib = compound: CN(C/C=C/C1=CC=C(C=C1)Cl)CC2=CC=CC=C2N(CCO)S(=O)(=O)C3=CC=C(C=C3)OC [KN-93] + C[C@@H](Oc1cc(-c2cnn(C3CCNCC3)c2)cnc1N)c1c(Cl)ccc(F)c1Cl [Crizotinib] (partner 1 µM)
Procedure, shortened: as §1

KN-93 + Linsitinib = compound: CN(C/C=C/C1=CC=C(C=C1)Cl)CC2=CC=CC=C2N(CCO)S(=O)(=O)C3=CC=C(C=C3)OC [KN-93] + C[C@]1(O)C[C@@H](c2nc(-c3ccc4ccc(-c5ccccc5)nc4c3)c3c(N)nccn32)C1 [Linsitinib] (partner 1 µM)
Procedure, shortened: as §1

KN-93 + Alpelisib = compound: CN(C/C=C/C1=CC=C(C=C1)Cl)CC2=CC=CC=C2N(CCO)S(=O)(=O)C3=CC=C(C=C3)OC [KN-93] + Cc1nc(NC(=O)N2CCC[C@H]2C(N)=O)sc1-c1ccnc(C(C)(C)C(F)(F)F)c1 [Alpelisib] (partner 2 µM)
Procedure, shortened: as §1

KN-93 + Olaparib = compound: CN(C/C=C/C1=CC=C(C=C1)Cl)CC2=CC=CC=C2N(CCO)S(=O)(=O)C3=CC=C(C=C3)OC [KN-93] + O=C(c1cc(Cc2n[nH]c(=O)c3ccccc23)ccc1F)N1CCN(C(=O)C2CC2)CC1 [Olaparib] (partner 8 µM)
Procedure, shortened: as §1

Cell Line	relative viability (KN-93; 0.253 µM)	relative viability (KN-93; 2.53 µM)	relative viability (KN-93; 8 µM)	relative viability (KN-93 + Bortezomib; first compound 0.08 µM)	relative viability (KN-93 + Bortezomib; first compound 0.253 µM)	relative viability (KN-93 + Bortezomib; first compound 2.53 µM)	relative viability (KN-93 + Bortezomib; first compound 8 µM)	relative viability (KN-93 + Navitoclax; first compound 0.08 µM)	relative viability (KN-93 + Navitoclax; first compound 0.253 µM)	relative viability (KN-93 + Navitoclax; first compound 2.53 µM)	relative viability (KN-93 + Navitoclax; first compound 8 µM)	relative viability (KN-93 + Foretinib; first compound 0.253 µM)	relative viability (KN-93 + Foretinib; first compound 2.53 µM)	relative viability (KN-93 + Foretinib; first compound 8 µM)	relative viability (KN-93 + Lapatinib; first compound 2.53 µM)	relative viability (KN-93 + Lapatinib; first compound 8 µM)	relative viability (KN-93 + Pictilisib; first compound 0.253 µM)	relative viability (KN-93 + Pictilisib; first compound 2.53 µM)	relative viability (KN-93 + Pictilisib; first compound 8 µM)	relative viability (KN-93 + Crizotinib; first compound 2.53 µM)	relative viability (KN-93 + Crizotinib; first compound 8 µM)	relative viability (KN-93 + Linsitinib; first compound 0.08 µM)	relative viability (KN-93 + Linsitinib; first compound 0.253 µM)	relative viability (KN-93 + Linsitinib; first compound 2.53 µM)	relative viability (KN-93 + Linsitinib; first compound 8 µM)	relative viability (KN-93 + Alpelisib; first compound 0.08 µM)	relative viability (KN-93 + Alpelisib; first compound 0.253 µM)	relative viability (KN-93 + Alpelisib; first compound 2.53 µM)	relative viability (KN-93 + Alpelisib; first compound 8 µM)	relative viability (KN-93 + Olaparib; first compound 0.08 µM)	relative viability (KN-93 + Olaparib; first compound 0.253 µM)	relative viability (KN-93 + Olaparib; first compound 2.53 µM)	relative viability (KN-93 + Olaparib; first compound 8 µM)	relative viability (KN-93; 0.08 µM)	relative viability (KN-93 + Foretinib; first compound 0.08 µM)	relative viability (KN-93 + Lapatinib; first compound 0.08 µM)	relative viability (KN-93 + Lapatinib; first compound 0.253 µM)	relative viability (KN-93 + Crizotinib; first compound 0.08 µM)	relative viability (KN-93 + Crizotinib; first compound 0.253 µM)
EBC-1	1.03	1.01	0.693	0.577	0.492	0.426	0.243	0.375	0.337	0.274	0.178	0.0885	0.12	0.124	0.183	0.233	0.317	0.343	0.224	0.216	0.192	0.905	0.907	1.07	0.869	0.821	0.889	0.599	0.497	0.652	0.69	0.652	0.52	–	–	–	–	–	–
NCI-H1299	1.1	1.04	0.796	0.969	1.01	1.05	0.969	1.07	1.04	1.11	1.02	1.13	1.14	0.904	0.952	0.708	1.03	0.656	0.267	0.891	0.514	0.959	1.22	1.02	0.861	0.951	1.15	1.09	1.07	0.941	1.06	1	0.594	1.01	1.12	0.992	1.04	0.885	1.14
